{"source": "ChEMBL document CHEMBL1201862", "about": "“PubChem BioAssay data set” (2004)", "key": {"Albumin": {"molecular_target": "Albumin (Bos taurus, UniProt P02769)", "sequence (P02769 whole entry)": "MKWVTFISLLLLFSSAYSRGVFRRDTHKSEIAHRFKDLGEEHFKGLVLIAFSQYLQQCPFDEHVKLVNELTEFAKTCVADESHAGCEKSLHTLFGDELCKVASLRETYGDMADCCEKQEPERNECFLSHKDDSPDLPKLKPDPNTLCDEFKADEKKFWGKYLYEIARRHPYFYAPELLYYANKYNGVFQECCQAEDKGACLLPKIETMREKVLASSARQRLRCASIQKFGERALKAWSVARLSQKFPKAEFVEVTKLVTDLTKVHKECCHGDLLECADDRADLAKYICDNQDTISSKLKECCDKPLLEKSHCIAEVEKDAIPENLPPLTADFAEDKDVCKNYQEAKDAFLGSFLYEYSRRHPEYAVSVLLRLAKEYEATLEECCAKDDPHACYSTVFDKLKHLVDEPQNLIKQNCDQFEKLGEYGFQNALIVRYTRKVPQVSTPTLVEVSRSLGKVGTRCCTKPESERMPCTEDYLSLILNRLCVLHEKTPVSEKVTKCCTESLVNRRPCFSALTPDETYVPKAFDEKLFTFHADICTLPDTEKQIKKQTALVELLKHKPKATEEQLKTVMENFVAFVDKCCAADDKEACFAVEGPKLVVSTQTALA", "assay": "Counterscreen for inhibitors of T-cell receptor (TCR)-CD3 interaction: Fluorescence-based biochemical high throughput dose response assay to identify inhibitors of T-cell receptor (TCR)-CD3 interaction using a TAMRA-labeled BSA probe.", "format": "functional"}, "[1]": {"molecular_target": "T1, Hepatocyte nuclear factor 4-alpha (Homo sapiens, UniProt P41235)", "T1 sequence (P41235 whole entry)": "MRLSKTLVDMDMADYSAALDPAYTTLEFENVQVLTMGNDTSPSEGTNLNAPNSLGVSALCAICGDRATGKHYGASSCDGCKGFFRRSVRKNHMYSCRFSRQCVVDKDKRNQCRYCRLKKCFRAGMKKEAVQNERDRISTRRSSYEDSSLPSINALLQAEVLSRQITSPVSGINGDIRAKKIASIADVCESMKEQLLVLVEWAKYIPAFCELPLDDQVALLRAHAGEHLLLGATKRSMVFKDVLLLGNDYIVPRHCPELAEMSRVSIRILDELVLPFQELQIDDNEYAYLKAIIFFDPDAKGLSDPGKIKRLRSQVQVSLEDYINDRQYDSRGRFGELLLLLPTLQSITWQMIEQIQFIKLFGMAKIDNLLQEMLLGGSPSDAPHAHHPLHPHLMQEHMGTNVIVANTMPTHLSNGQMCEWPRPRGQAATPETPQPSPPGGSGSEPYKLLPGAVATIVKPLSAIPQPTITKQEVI", "format": "functional, cell-based"}, "[2]": {"assay": "inhibitors of HIV Env-driven cell fusion, dose response, cherry-pick (AID 652057)", "format": "functional, cell-based"}, "[3]": {"assay": "ZM109 Env clade C HIV-1 fusion inhibitors, dose response, HeLa effector, CEM target cells, luciferase, cherry-pick (AID 652058)", "format": "functional, cell-based"}, "[4]": {"assay": "inhibitors of clade B AD8 Env fusion, dose response, cell-based, cherry-pick (AID 652062);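 note: potency is for inhibitors of fusion seen as a drop in luminescence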", "format": "functional"}, "HeLa": {"tested_on": "HeLa", "assay": "HeLa cell cytotoxicity, dose response, cytotoxicity control, ATP luminescence, cherry-pick samples (AID 687004)", "format": "functional, cell-based", "settings": "Homo sapiens"}, "Vero": {"tested_on": "Vero", "assay": "Vero cell toxicity, dose response, cytotoxicity control, plate reader, cherry-pick samples (AID 687020)", "format": "functional, cell-based", "settings": "Chlorocebus sabaeus"}, "cells [5]": {"assay": "cells", "format": "functional, cell-based"}, "[6]": {"molecular_target": "T2, Trace amine-associated receptor 1 (Homo sapiens, UniProt Q96RJ0)", "T2 sequence (Q96RJ0 whole entry)": "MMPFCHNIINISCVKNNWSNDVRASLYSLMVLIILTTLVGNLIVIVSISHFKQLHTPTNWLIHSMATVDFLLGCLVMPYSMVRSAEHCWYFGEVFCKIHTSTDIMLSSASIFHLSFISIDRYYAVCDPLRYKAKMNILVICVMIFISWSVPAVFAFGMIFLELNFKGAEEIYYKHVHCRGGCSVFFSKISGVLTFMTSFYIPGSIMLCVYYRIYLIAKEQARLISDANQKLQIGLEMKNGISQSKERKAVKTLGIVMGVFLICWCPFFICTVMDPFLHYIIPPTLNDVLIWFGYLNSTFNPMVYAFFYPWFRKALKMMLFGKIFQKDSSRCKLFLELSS", "assay": "Fluorescence-based cell-based high throughput dose response assay to identify agonists of the human trace amine associated receptor 1 (TAAR1).", "format": "functional"}, "[7]": {"molecular_target": "T2, Trace amine-associated receptor 1", "assay": "Counterscreen for agonists of the human trace amine associated receptor 1 (hTAAR1): Fluorescence-based cell-based high throughput dose response assay to identify hTAAR1 agonist that also desensitize TAAR1 receptor response.", "format": "functional"}, "cells [8]": {"assay": "cells", "format": "functional, cell-based", "remark": "listed apart in the source"}}, "note": "Active and inactive are the calls of the source.", "data": [{"smiles": "Cc1ccc(S(=O)(=O)N2CCC(C(=O)NNC(=O)c3ccccc3O)CC2)cc1C", "values": [{"measurement": "IC50", "setting": "Albumin", "value": "> 94.1 µM (inactive)"}]}, {"smiles": "Cc1ccc(O)c(C(=O)C=Cc2ccccc2)c1", "values": [{"measurement": "IC50", "setting": "[1]", "value": "4 µM (active)"}]}, {"smiles": "O=C(CNC(=O)c1ccccc1F)NNC(=O)c1ccccc1O", "values": [{"measurement": "IC50", "setting": "Albumin", "value": "> 94.1 µM (inactive)"}]}, {"smiles": "N#Cc1ccc(C(C(=O)Nc2ccc3c(c2)OCCO3)n2c(=O)c(-c3ccco3)nc3ccccc32)cc1", "note": "(centres undefined)", "values": [{"measurement": "IC50", "setting": "[1]", "value": "9.98 µM (active)"}]}, {"smiles": "C[C@H]1CN([C@@H](C)CO)C(=O)Cc2cc(NC(=O)Nc3ccccc3)ccc2O[C@H]1CN(C)S(=O)(=O)c1cccs1", "values": [{"measurement": "AC50", "setting": "[2]", "value": "1.36 µM (active)"}, {"measurement": "AC50", "setting": "[3]", "value": "1.55 µM (active)"}, {"measurement": "AC50", "setting": "[4]", "value": "8.52 µM (active)"}]}, {"smiles": "CCCNC(=O)C[C@@H]1CC[C@@H]2[C@H](COc3ccc(NC(=O)CCC)cc3C(=O)N2C)O1", "values": [{"measurement": "AC50", "setting": "HeLa", "value": "9.9 µM (active)"}]}, {"smiles": "COC(=O)C1=C(C)N(Cc2ccc(Br)cc2)C(=S)NC1c1cccc(Br)c1", "note": "(centres undefined)", "values": [{"measurement": "AC50", "setting": "HeLa", "value": "38.1 µM (active)"}]}, {"smiles": "Cc1c(C(=O)NCc2cccnc2)oc2ccc(S(=O)(=O)N3CC(C)CC(C)C3)cc12", "note": "(centres undefined)", "values": [{"measurement": "AC50", "setting": "Vero", "value": "32.4 µM (active)"}]}, {"smiles": "COc1ccc(/C=N/CC2COc3ccccc3O2)cc1OC", "note": "(centres undefined)", "values": [{"measurement": "IC50", "setting": "cells [5]", "value": "> 29.9 µM (inactive)"}, {"measurement": "EC50", "setting": "[6]", "value": "1.44 µM (active)"}, {"measurement": "IC50", "setting": "[7]", "value": "18.9 µM (inactive)"}, {"measurement": "EC50", "setting": "cells [8]", "value": "> 29.9 µM (inactive)"}]}]}
